≈ marks a conversion by molar mass, not a printed value.
Key:
[1] = molecular target: C-C chemokine receptor type 2 (Homo sapiens, UniProt P41597); assay: Displacement of [125I]-MCP1 from human CCR2 receptor in THP1 cells after 2 hrs by scintillation counting; assay type: cell-based, THP-1
[2] = molecular target: Voltage-gated inwardly rectifying potassium channel KCNH2 (Homo sapiens, UniProt Q12809)
Description: Displacement of [3H]-astemizole from human ERG in HEK293 cells after 1 hrs by scintillation counting

[3] = Apparent permeability of the compound from basolateral to apical side in human Caco2 cell membrane; assay type: ADME, cell-based; conditions: Caco-2
[4] = Efflux ratio of permeability from basolateral to apical side over apical to basolateral side in human Caco2 cell membrane; assay type: ADME, cell-based; conditions: Caco-2
[5] = Apparent permeability of the compound from apical to basolateral side in human Caco2 cell membrane; assay type: ADME, cell-based; conditions: Caco-2
[6] = Kinetic solubility of the compound at pH 2; assay type: physicochemical; conditions: buffer, read-out: Kinetic_solubility
[7] = molecular target: hERG (KCNH2) (Homo sapiens, UniProt Q12809); assay: in vitro; conditions: HEK293 cells that express hERG
hERG (KCNH2), sequence (Q12809 whole entry): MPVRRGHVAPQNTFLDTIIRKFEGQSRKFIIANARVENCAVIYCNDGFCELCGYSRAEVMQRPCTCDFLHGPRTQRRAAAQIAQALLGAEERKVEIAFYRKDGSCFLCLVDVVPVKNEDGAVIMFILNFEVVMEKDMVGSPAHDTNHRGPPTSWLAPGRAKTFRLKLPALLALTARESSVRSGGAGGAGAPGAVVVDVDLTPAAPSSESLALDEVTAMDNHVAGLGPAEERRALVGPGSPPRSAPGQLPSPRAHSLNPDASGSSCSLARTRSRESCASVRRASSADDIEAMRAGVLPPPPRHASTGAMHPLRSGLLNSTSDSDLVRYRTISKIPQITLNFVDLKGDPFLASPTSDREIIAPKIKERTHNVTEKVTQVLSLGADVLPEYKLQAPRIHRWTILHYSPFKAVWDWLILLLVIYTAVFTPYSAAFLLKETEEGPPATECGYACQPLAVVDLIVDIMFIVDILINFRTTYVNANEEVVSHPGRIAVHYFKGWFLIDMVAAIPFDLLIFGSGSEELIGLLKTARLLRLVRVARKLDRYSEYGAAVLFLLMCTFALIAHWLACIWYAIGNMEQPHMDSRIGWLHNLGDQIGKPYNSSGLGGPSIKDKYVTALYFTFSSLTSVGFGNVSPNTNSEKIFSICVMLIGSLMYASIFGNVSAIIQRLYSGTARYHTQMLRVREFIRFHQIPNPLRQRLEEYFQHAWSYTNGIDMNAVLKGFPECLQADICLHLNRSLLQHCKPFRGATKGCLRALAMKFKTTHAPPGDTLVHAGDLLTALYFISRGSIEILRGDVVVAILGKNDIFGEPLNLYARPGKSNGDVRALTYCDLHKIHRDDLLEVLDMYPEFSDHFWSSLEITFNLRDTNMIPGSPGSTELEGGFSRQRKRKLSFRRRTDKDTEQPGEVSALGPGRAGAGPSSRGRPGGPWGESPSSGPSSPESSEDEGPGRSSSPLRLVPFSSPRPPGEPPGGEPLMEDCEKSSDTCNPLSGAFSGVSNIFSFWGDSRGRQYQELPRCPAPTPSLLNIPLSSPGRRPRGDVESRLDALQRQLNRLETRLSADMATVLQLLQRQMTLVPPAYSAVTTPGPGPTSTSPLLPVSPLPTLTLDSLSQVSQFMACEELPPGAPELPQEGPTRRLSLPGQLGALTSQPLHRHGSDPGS

C-C chemokine receptor type 2, sequence (P41597 whole entry): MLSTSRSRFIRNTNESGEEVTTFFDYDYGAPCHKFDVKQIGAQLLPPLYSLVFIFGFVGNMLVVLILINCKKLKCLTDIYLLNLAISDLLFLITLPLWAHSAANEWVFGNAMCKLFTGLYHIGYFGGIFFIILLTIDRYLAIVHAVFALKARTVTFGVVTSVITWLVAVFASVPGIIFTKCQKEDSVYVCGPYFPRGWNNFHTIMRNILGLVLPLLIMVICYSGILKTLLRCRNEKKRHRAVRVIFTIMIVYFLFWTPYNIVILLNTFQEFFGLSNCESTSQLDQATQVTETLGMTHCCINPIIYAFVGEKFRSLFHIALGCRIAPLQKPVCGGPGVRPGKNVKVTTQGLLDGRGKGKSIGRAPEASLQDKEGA
Voltage-gated inwardly rectifying potassium channel KCNH2, sequence (Q12809 whole entry): as the sequence (Q12809 whole entry) above

| SMILES | IC50 [1] [µM] | IC50 [2] [µM] | also measured |
| --- | --- | --- | --- |
| O=C(Cn1[nH]c2ccc(C(F)(F)F)cc2c1=O)NC1CN([C@H]2CC[C@@H](c3ccccc3)CC2)C1 | 5.4 | – | – |
| O=C(CSc1n[nH]c2ccc(C(F)(F)F)cc12)NC1CN([C@H]2CC[C@@H](c3ccccc3)CC2)C1 | 0.29 | – | – |
| O=C(CNc1n[nH]c2ccc(C(F)(F)F)cc12)NC1CN([C@H]2CC[C@@H](c3ccc4c(c3)OCO4)CC2)C1 | 0.006 | – | – |
| Cn1nc(NCC(=O)NC2CN([C@H]3CC[C@@H](c4ccc5c(c4)OCO5)CC3)C2)c2cc(C(F)(F)F)ccc21 | 0.013 | – | – |
| CC(C)[C@H]1CC[C@@H](N2CC(NC(=O)CNc3n[nH]c4ccc(C(F)(F)F)cc34)C2)CC1 | 0.37 | 6.2 | – |
| Cn1nc(NCC(=O)NC2CN([C@H]3CC[C@@H](C4CCCCC4)CC3)C2)c2cc(C(F)(F)F)ccc21 | 0.12 | – | – |
| CCOC(=O)[C@H]1CC[C@@H](N2CC(NC(=O)CNc3nn(C)c4ccc(C(F)(F)F)cc34)C2)CC1 | 0.013 | 8 | – |
| Cn1nc(NCC(=O)NC2CN([C@H]3CC[C@@H](C(=O)O)CC3)C2)c2cc(C(F)(F)F)ccc21 | 2.6 | 25 | – |
| Cn1nc(NCC(=O)NC2CN([C@H]3CC[C@@H](CO)CC3)C2)c2cc(C(F)(F)F)ccc21 | 0.044 | – | – |
| CCOC[C@H]1CC[C@@H](N2CC(NC(=O)CNc3nn(C)c4ccc(C(F)(F)F)cc34)C2)CC1 | 0.027 | 5.6 | – |
| N[C@H]1CC[C@@H](N2CC(NC(=O)CNc3n[nH]c4ccc(C(F)(F)F)cc34)C2)CC1 | > 25 | > 50 | – |
| CS(=O)(=O)N[C@H]1CC[C@@H](N2CC(NC(=O)CNc3n[nH]c4ccc(C(F)(F)F)cc34)C2)CC1 | 2.08 | – | – |
| CCOC(=O)[C@H]1CC[C@@H](N2CC(NC(=O)CNc3n[nH]c4ccc(C(F)(F)F)cc34)C2)CC1 | 0.027 | 9.1 | – |
| CCOC(=O)[C@H]1CC[C@@H](N2CC(NC(=O)CNc3noc4ccc(C(F)(F)F)cc34)C2)CC1 | 0.029 | – | – |
| C=CCn1nc(NCC(=O)NC2CN([C@H]3CC[C@@H](C(=O)OCC)CC3)C2)c2cc(C(F)(F)F)ccc21 | 0.022 | – | – |
| CCOC(=O)[C@H]1CC[C@@H](N2CC(NC(=O)CNc3nn(CC(F)(F)F)c4ccc(C(F)(F)F)cc34)C2)CC1 | 0.23 | 2.5 | – |
| CCOC(=O)[C@H]1CC[C@@H](N2CC(NC(=O)CNc3nn(S(C)(=O)=O)c4ccc(C(F)(F)F)cc34)C2)CC1 | 0.92 | 25 | – |
| CCOC(=O)[C@H]1CC[C@@H](N2CC(NC(=O)CNc3nn(C4CCCC4)c4ccc(C(F)(F)F)cc34)C2)CC1 | 0.65 | 4.1 | – |
| O=C(CNc1nn(CCO)c2ccc(C(F)(F)F)cc12)NC1CN([C@H]2CC[C@@H](c3nccs3)CC2)C1 | 0.029 | – | – |
| COc1ccc([C@]2(O)CC[C@H](N3CC(NC(=O)CNc4n[nH]c5ccc(C(F)(F)F)cc45)C3)CC2)cn1 | 0.016 | 32 | inhibition at 5 min, 3 µM [7]: 30% |
| O=C(CNc1n[nH]c2ccc(C(F)(F)F)cc12)NC1CN([C@H]2CC[C@@H](c3ccccc3)CC2)C1 (stereo in doubt; 5) | – | – | IC50 ([1]; thp-1): 0.012 µM |
| O=C(CNc1n[nH]c2ccc(C(F)(F)F)cc12)NC1CN([C@H]2CC[C@@H](c3ccccc3)CC2)C1 (stereo in doubt; 13a) | 0.012 | 1.2 | – |

More lines, main results first:

| IC50 [1] [µM] | SMILES | IC50 [2] [µM] | also measured |
| --- | --- | --- | --- |
| 10 | C#C[C@H]1CC[C@@H](N2CC(NC(=O)CNc3nn(C)c4ccc(C(F)(F)F)cc34)C2)CC1 | > 50 | – |
| 0.51 | O=C(COc1n[nH]c2ccc(C(F)(F)F)cc12)NC1CN([C@H]2CC[C@@H](c3ccccc3)CC2)C1 | – | – |
| 0.012 | NC(=O)Cc1ccc([C@H]2CC[C@@H](N3CC(NC(=O)CNc4n[nH]c5ccc(C(F)(F)F)cc45)C3)CC2)cc1 | 9.5 | – |
| 0.063 | O=C(CNc1n[nH]c2ccc(C(F)(F)F)cc12)NC1CN([C@H]2CC[C@@H](n3ccccc3=O)CC2)C1 | – | – |
| 0.33 | Cn1nc(NCC(=O)NC2CN([C@H]3CC[C@@H](C#N)CC3)C2)c2cc(C(F)(F)F)ccc21 | – | – |
| 0.51 | Cn1nc(NCC(=O)NC2CN([C@H]3CC[C@@H](C(N)=O)CC3)C2)c2cc(C(F)(F)F)ccc21 | 32 | – |
| 0.53 | O=C(CNc1n[nH]c2ccc(C(F)(F)F)cc12)NC1CN([C@H]2CC[C@@H](O)CC2)C1 | 30 | – |
| 0.036 | O=C(CNc1noc2ccc(C(F)(F)F)cc12)NC1CN([C@H]2CC[C@@H](c3ccc4c(c3)OCO4)CC2)C1 | 1.9 | – |
| 0.055 | CC(C)(C)NC(=O)n1nc(NCC(=O)NC2CN([C@H]3CC[C@@H](c4ccc5c(c4)OCO5)CC3)C2)c2cc(C(F)(F)F)ccc21 | – | – |
| 0.082 | NC(=O)n1nc(NCC(=O)NC2CN([C@H]3CC[C@@H](c4ccc5c(c4)OCO5)CC3)C2)c2cc(C(F)(F)F)ccc21 | 12 | Papp B→A [3]: 24.4 nm/s; efflux ratio [4]: 16.2; Papp A→B [5]: 1.5 nm/s; solubility kinetic [6]: 3.5 µM (≈ 1.95 µg/mL) |
| 0.056 | CCOC(=O)[C@H]1CC[C@@H](N2CC(NC(=O)CNc3nn(C(N)=O)c4ccc(C(F)(F)F)cc34)C2)CC1 | 20 | Papp B→A [3]: 35 nm/s; efflux ratio [4]: 10.9; Papp A→B [5]: 3.2 nm/s; solubility kinetic [6]: 8.9 µM (≈ 4.54 µg/mL) |
| 0.006 | Cc1ccc([C@H]2CC[C@@H](N3CC(NC(=O)CNc4n[nH]c5ccc(C(F)(F)F)cc45)C3)CC2)cn1 | 27 | inhibition at 5 min, 3 µM [7]: 23% |
| 0.48 | Cn1nc(NCC(=O)NC2CN([C@H]3CC[C@@H](c4ncco4)CC3)C2)c2cc(C(F)(F)F)ccc21 | – | – |
